In one assay the target is T1, CLK2 enzyme (Homo sapiens, UniProt P49760).
T1 construct: purchased Thermo Fisher Scientific
In words: Measurement of CLK2 inhibitory activity (LANCE time-resolved fluorescence, ULight-labeled MBP peptide). The format is biochemical. To be noted: compound 1 μM; for inhibition at 1 µM: ATP 1 mM, read-out: CLK2 activity inhibition ratio at compound concentration of 1 μM (ATP 1 mM). As for the experimental part:
A test compound dissolved in DMSO was added to a reaction solution (50 mM HEPES (pH: 7.5), 10 mM MgCl2, 1 mM EGTA, 2 mM DTT, 0.01% Tween 20, 0.01% BSA) containing a CLK2 enzyme (Thermo Fisher Scientific) and an ULight-labeled MBP peptide (PerkinElmer), and the mixture was then reacted at room temperature for 10 minutes. An ATP solution was added to a final concentration of 1 mM to initiate an enzyme reaction, and the reaction was carried out at room temperature for 60 minutes. A europium-labeled anti-phosphorylated MBP antibody (PerkinElmer) and a LANCE Detection buffer (PerkinElmer) containing EDTA with a final concentration of 20 mM were added to stop the reaction, the mixture was left standing for 60 minutes, and the time-resolved fluorescence value (excitation 320 nm, and emission 615 nm and 665 nm) was measured by Envision (PerkinElmer). The inhibition ratio (%) of CLK2 by the test compound was calculated in accordance with the following expression. Inhibition ratio (%)=(1−(count of test compound−blank)÷(control−blank))×100
The count of the CLK2 enzyme reaction solution without addition of the compound was described as a control, and the count without addition of the compound and addition of the CLK2 enzyme was described as a blank. The concentration at which the inhibition ratio was 50% was defined as an IC50 value.

A further assay has as its system HCT116 cells. The experiment in a line: Growth inhibitory activity using HCT116 cells (Cell Titer-Glo). To be noted: compound 1 μM, 3 days; for inhibition at 1 µM: Homo sapiens, HCT-116, 72 h, read-out: Cell growth inhibition ratio at compound concentration of 1 μM. The format is cell-based, human. How it is done:
HCT 116 cells (ATCC) were seeded in a 384-well plate at a density of 6×10^2 cells/well, and cultured overnight in a cell culture medium McCoy's 5A (Thermo Fisher Scientific) containing 10% FBS (fetal bovine serum) and 1% penicillin/streptomycin. The dissolved test compound was added in the cell medium, and the cell medium was left standing in a CO2 incubator (37° C.) for 3 days. A Cell Titer-Glo solution (Promega Corporation) was added, the mixture was stirred at room temperature for 10 minutes, and the emission value was measured by Envision (PerkinElmer). The inhibition ratio (%) of HCT116 cell growth by the test compound was calculated in accordance with the following expression. Inhibition ratio (%)=(1−(count of test compound−blank)÷(control−blank))×100
The count of the HCT116 cell suspension without addition of the compound was described as a control, and the count without addition of the compound and addition of HCT116 cells was described as a blank. The concentration at which the inhibition ratio was 50% was defined as an IC50 value.
(In general: In ATP-based viability assays light output follows the ATP content of the culture.)

T1 sequence (P49760 whole entry): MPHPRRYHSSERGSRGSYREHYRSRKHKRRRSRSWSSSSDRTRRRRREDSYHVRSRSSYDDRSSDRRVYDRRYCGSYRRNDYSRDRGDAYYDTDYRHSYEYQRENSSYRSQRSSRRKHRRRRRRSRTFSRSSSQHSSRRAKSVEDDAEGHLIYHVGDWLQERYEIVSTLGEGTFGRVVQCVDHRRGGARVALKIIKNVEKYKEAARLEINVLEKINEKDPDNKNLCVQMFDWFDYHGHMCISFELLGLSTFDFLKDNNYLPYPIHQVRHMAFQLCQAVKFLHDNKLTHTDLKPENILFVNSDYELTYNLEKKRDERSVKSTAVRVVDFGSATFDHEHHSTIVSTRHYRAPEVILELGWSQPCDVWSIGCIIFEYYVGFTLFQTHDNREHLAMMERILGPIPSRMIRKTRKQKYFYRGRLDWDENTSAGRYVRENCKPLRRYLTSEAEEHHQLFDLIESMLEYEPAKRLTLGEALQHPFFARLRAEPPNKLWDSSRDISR

On to `COc1ncnc2ccn(-c3cnc4nc(C)n(Cc5cc(F)cc(F)c5)c4c3)c12` [Example 7, 1-(3,5-difluorobenzyl)-6-(4-methoxy-5H-pyrrolo[3,2-d]pyrimidin-5-yl)-2-methyl-1H-imidazo[4,5-b]pyridine], for which the inhibition at 1 µM stood at 100% at CLK2 enzyme and 92% in the assay on HCT116 cells.

Turning to `COc1ccnc2ccn(-c3cnc4nc(C)n(Cc5cccc(F)c5)c4c3)c12` [Example 102, 1-(3-fluorobenzyl)-6-(7-methoxy-1H-pyrrolo[3,2-b]pyridin-1-yl)-2-methyl-1H-imidazo[4,5-b]pyridine], the inhibition at 1 µM on CLK2 enzyme came to 100%; in the assay on HCT116 cells, 95%.

As to `COc1ccnc2cnn(-c3cnc4nc(C)n(Cc5cccc(F)c5)c4c3)c12` [Example 105, 1-(1-(3-fluorobenzyl)-2-methyl-1H-imidazo[4,5-b]pyridin-6-yl)-7-methoxy-1H-pyrazolo[4,3-b]pyridine], the values for the inhibition at 1 µM at CLK2 enzyme and with HCT116 cells were 100% and 96%, respectively.

Regarding `COc1cnc2ccn(-c3cnc4nc(C)n(Cc5cccc(F)c5)c4c3)c2n1` [Example 110, 1-(3-fluorobenzyl)-6-(3-methoxy-5H-pyrrolo[2,3-b]pyrazin-5-yl)-2-methyl-1H-imidazo[4,5-b]pyridine], the figures for the inhibition at 1 µM on CLK2 enzyme and with HCT116 cells were 100% and 92%, respectively.

With `COc1nc2ncc(-n3ccc4ncc(C(C)O)nc43)cc2n1Cc1cccc(F)c1` (stereo not shown) [Example 160, 1-(5-(1-(3-fluorobenzyl)-2-methoxy-1H-imidazo[4,5-b]pyridin-6-yl)-5H-pyrrolo[2,3-b]pyrazin-3-yl)ethanol], at CLK2 enzyme, the “CLK2 activity inhibition ratio at compound concentration of 1 μM (ATP 1 mM)” value came to 100%. Further, the “Cell growth inhibition ratio at compound concentration of 1 μM” value in the assay with HCT116 cells is listed as 98%.

For the molecule `COc1nc2ncc(-n3ccc4ncc(C(C)O)nc43)cc2n1Cc1cccc(F)c1` (stereo not shown) [Example 161, 1-(5-(1-(3-fluorobenzyl)-2-methoxy-1H-imidazo[4,5-b]pyridin-6-yl)-5H-pyrrolo[2,3-b]pyrazin-3-yl)ethanol], the results for the inhibition at 1 µM at CLK2 enzyme and with HCT116 cells were 100% and 97%, respectively.

Consider `COc1ncnn2ccc(-c3cnc4nc(C)n(Cc5cccc(F)c5)c4c3)c12` [Example 175, 1-(3-fluorobenzyl)-6-(4-methoxypyrrolo[2,1-f][1,2,4]triazin-5-yl)-2-methyl-1H-imidazo[4,5-b]pyridine], for which the figures for the inhibition at 1 µM on CLK2 enzyme and with HCT116 cells were 100% and 91%, respectively.

In the case of `COc1ncnn2ccc(-c3cnc4nc(CO)n(Cc5cc(F)cc(F)c5)c4c3)c12` [Example 176, (1-(3,5-difluorobenzyl)-6-(4-methoxypyrrolo[2,1-f][1,2,4]triazin-5-yl)-1H-imidazo[4,5-b]pyridin-2-yl)methanol], the inhibition at 1 µM at CLK2 enzyme came to 100%; in the assay with HCT116 cells, 85%.

Consider `COc1ncnn2ccc(-c3cnc4nc(C)n(Cc5nc(C)no5)c4c3)c12` [Example 186, 6-(4-methoxypyrrolo[2,1-f][1,2,4]triazin-5-yl)-2-methyl-1-((3-methyl-1,2,4-oxadiazol-5-yl)methyl)-1H-imidazo[4,5-b]pyridine], for which the inhibition at 1 µM came out at 99% at CLK2 enzyme and 96% with HCT116 cells.

For the molecule `COc1ncnn2ccc(-c3cnc4nc(C)n(Cc5nnc(C)o5)c4c3)c12` [Example 193, 6-(4-methoxypyrrolo[2,1-f][1,2,4]triazin-5-yl)-2-methyl-1-((5-methyl-1,3,4-oxadiazol-2-yl)methyl)-1H-imidazo[4,5-b]pyridine], the figures for the inhibition at 1 µM on CLK2 enzyme and in the assay on HCT116 cells were 100% and 98%, respectively.

Regarding `COc1ncnn2ccc(-c3cnc4nc(C)n(Cc5noc(C)n5)c4c3)c12` [Example 214, 6-(4-methoxypyrrolo[2,1-f][1,2,4]triazin-5-yl)-2-methyl-1-((5-methyl-1,2,4-oxadiazol-3-yl)methyl)-1H-imidazo[4,5-b]pyridine], the inhibition at 1 µM stood at 99% on CLK2 enzyme and 96% with HCT116 cells.

For `COc1ncnn2ccc(-c3cnc4nc(C)n(Cc5cc(C)no5)c4c3)c12` [Example 215], the inhibition at 1 µM at CLK2 enzyme is 100%; with HCT116 cells it was 95%.

With `COc1ncnn2ccc(-c3cnc4nc(C)n(Cc5nc(C)ns5)c4c3)c12` [Example 229, 6-(4-methoxypyrrolo[2,1-f][1,2,4]triazin-5-yl)-2-methyl-1-((3-methyl-1,2,4-thiadiazol-5-yl)methyl)-1H-imidazo[4,5-b]pyridine], the inhibition at 1 µM on CLK2 enzyme stood at 100%; in the assay with HCT116 cells it was 97%.

`COc1ncnn2ccc(-c3cnc4nc(C)n(Cc5nnc(C(F)F)o5)c4c3)c12` [Example 242, 1-((5-(difluoromethyl)-1,3,4-oxadiazol-2-yl)methyl)-6-(4-methoxypyrrolo[2,1-f][1,2,4]triazin-5-yl)-2-methyl-1H-imidazo[4,5-b]pyridine]: the results for the inhibition at 1 µM on CLK2 enzyme and with HCT116 cells were 100% and 94%, respectively.

For the molecule `COc1ncnn2ccc(-c3cnc4nc(C)n(Cc5nnc(C(C)(F)F)o5)c4c3)c12` [Example 274], the inhibition at 1 µM was 100% at CLK2 enzyme and 93% in the assay with HCT116 cells.

`COc1ncnn2ccc(-c3cnc4nc(C)n(Cc5nnc(C(C)(C)F)o5)c4c3)c12` [Example 277, 1-((5-(2-fluoropropan-2-yl)-1,3,4-oxadiazol-2-yl)methyl)-6-(4-methoxypyrrolo[2,1-f][1,2,4]triazin-5-yl)-2-methyl-1H-imidazo[4,5-b]pyridine]: the inhibition at 1 µM on CLK2 enzyme came out at 100%; with HCT116 cells, 95%.

Regarding `COc1ncnn2ccc(-c3cnc4nc(C)n(Cc5nnc(C6(F)CC6)o5)c4c3)c12` [Example 283, 1-((5-(1-fluorocyclopropyl)-1,3,4-oxadiazol-2-yl)methyl)-6-(4-methoxypyrrolo[2,1-f][1,2,4]triazin-5-yl)-2-methyl-1H-imidazo[4,5-b]pyridine], the results for the inhibition at 1 µM at CLK2 enzyme and with HCT116 cells were 100% and 96%, respectively.

The values above are taken from patent US10577382B2, “Fused heterocyclic compound” (TAKEDA PHARMACEUTICAL COMPANY LIMITED, priority 2016, dated 2020).
